Laboratory results from patent US20150125403A1, “PERSONAL CARE AND COSMETIC COMPOSITIONS COMPRISING RENEWABLY-BASED, BIODEGRADABLE 1,3-PROPANEDIOL” (DuPont Tate & Lyle Bio Products Company, LLC, priority 2006, published 2015).

Tests used:
[1] = viscosity of the composition; assay type: physicochemical; details: cosmetic emulsion of Example 1 made with the named glycol instead of Bio-PDO
Protocol: Brookfield Model RV−Spindle 5 at 20 rpm for 1 minute (factor×200)
Brookfield Model RV−Spindle T at 5 rpm for 1 minute (factor×10,000)

human skin [2] = assay: human skin patch test with approximately 100 subjects; assay type: in vivo; details: 5, 25, and 50% PDO
Description: (§1) Based on these studies PDO is not expected to be a skin irritant or sensitizer in humans.

human skin [3] = assay: second human skin patch test; assay type: in vivo; details: 25, 50, and 75% (pH 7)
Description: as §1

| Structure (SMILES) | viscosity of the cosmetic emulsion containing the glycol [1] [cps] | skin reactions indicative of irritation or sensitization (human skin [2]) | patch test irritation and cumulative irritation of human skin (human skin [3]) |
| --- | --- | --- | --- |
| CC(O)CCO (centres unmarked) [1,3-butylene glycol] | 6000 |  |  |
| CC(CO)CO [2-methyl-1,3-propanediol] | 9600 |  |  |
| OCCCO [PDO, 1,3-propanediol] |  | did not cause any skin reactions indicative of irritation or sensitization |  |
| CC(O)CO (centres unmarked) [propylene glycol, 1,2-propanediol] | 12600 |  | patch test irritants and cumulative irritants for human skin |
